The values below come from patent US9695154B2, “Heteroaryl inhibitors of sumo activating enzyme” (MILLENNIUM PHARMACEUTICALS, INC., priority 2013, dated 2017).

In this experiment the target is T1, recombinant human SAE enzyme (Homo sapiens, UniProt Q9UBT2).
T1 sequence (Q9UBT2 1-640): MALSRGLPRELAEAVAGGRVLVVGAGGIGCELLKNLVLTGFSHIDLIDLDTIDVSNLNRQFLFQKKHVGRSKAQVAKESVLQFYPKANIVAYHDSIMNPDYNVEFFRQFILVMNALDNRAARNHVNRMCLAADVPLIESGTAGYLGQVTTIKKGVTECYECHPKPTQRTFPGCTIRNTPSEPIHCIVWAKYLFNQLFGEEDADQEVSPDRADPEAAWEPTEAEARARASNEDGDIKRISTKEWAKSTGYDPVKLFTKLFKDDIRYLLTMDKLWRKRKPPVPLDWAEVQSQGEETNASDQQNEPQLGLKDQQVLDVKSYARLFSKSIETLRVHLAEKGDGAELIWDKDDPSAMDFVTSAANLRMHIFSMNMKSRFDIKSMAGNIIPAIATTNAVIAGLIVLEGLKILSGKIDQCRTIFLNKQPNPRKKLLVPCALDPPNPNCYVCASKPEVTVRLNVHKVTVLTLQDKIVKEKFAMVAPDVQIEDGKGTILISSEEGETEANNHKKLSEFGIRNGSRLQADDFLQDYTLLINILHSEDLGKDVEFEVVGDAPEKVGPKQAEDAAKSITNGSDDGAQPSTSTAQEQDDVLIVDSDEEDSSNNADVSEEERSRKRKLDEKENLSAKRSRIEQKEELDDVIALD
T1 sequence (Q9UBE0 1-346 partner): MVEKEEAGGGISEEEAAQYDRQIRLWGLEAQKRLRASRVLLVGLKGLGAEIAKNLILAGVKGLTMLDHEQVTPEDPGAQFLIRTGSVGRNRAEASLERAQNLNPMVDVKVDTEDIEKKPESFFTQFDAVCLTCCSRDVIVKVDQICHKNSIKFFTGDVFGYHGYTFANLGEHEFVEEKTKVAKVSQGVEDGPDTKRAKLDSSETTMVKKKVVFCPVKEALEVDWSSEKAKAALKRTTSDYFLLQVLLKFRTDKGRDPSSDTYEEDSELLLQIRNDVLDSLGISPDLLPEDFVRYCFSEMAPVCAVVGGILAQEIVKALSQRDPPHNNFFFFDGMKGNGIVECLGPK
The experiment is described as follows: SAE HTRF Enzyme Assay. Format: biochemical. The settings on record: for IC50: class symbols A-C; for inhibition at 0.111 µM: compound concentration 0.111 μM, read-out: Percent Inhibition. The procedure, abridged: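 Measured as FRET after a 2 h antibody step: SAE (0.11 nM) thioester transfer of Sumo-Flag to Ubc9-GST, 0.5 μM ATP, 24° C for 105 min, quenched with 20 mM EDTA. Output is IC50 or percent inhibition at a single concentration.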
(In general: In TR-FRET formats the signal depends on donor and acceptor labels being close together.)

What is called IC50 is the concentration at which inhibition is half-maximal. Broadly, the inhibition is the drop in the measured response relative to a control, in per cent. For the compound `CC#CCn1ccc(C(=O)c2cncnc2N[C@@H]2C[C@H](COS(N)(=O)=O)[C@@H](O)C2)n1` [Compound I-228, {(1R,2S,4R)-4-[(5-{[1-(but-2-yn-1-yl)-1H-pyrazol-3-yl]carbonyl}pyrimidin-4-yl)amino]-2-hydroxycyclopentyl}methyl sulfamate], the IC50 lay within 10 to 100 nM and the inhibition at 0.111 µM was found to be 72%.
On the same counts, the results for `NS(=O)(=O)OC[C@H]1C[C@@H](Nc2ncncc2C(=O)c2ccn(Cc3cccc(Oc4ccc(F)cc4)c3)n2)[C@H](O)[C@@H]1O` [Compound I-229, [(1R,2R,3S,4R)-4-{[5-({1-[3-(4-fluorophenoxy)benzyl]-1H-pyrazol-3-yl}carbonyl)pyrimidin-4-yl]amino}-2,3-dihydroxycyclopentyl]methyl sulfamate] are 10 to 100 nM and 88%.
Taken in the same sequence, the figures for `NS(=O)(=O)OC[C@H]1C[C@@H](Nc2ncncc2C(=O)c2ccn(Cc3cc(C(F)(F)F)ccc3F)n2)[C@H](O)[C@@H]1O` [Compound I-230, [(1R,2R,3S,4R)-4-{[5-({1-[2-fluoro-5-(trifluoromethyl)benzyl]-1H-pyrazol-3-yl}carbonyl)pyrimidin-4-yl]amino}-2,3-dihydroxycyclopentyl]methyl sulfamate] were < 10 nM and 98%.
On the same counts, the results for `NS(=O)(=O)OC[C@H]1C[C@@H](Nc2ncncc2C(=O)c2ccn(Cc3ccc(F)o3)c2)[C@@H](F)[C@@H]1O` [Compound I-231, [(1R,2R,3R,4R)-3-fluoro-4-{[5-({1-[(5-fluoro-2-furyl)methyl]-1H-pyrrol-3-yl}carbonyl)pyrimidin-4-yl]amino}-2-hydroxycyclopentyl]methyl sulfamate] are < 10 nM and 99%.
Turning to `NS(=O)(=O)OC[C@H]1C[C@@H](Nc2ncncc2C(=O)c2ccn(Cc3sccc3Cl)n2)C[C@@H]1O` [Compound I-232, [(1R,2S,4R)-4-{[5-({1-[(3-chloro-2-thienyl)methyl]-1H-pyrazol-3-yl}carbonyl)pyrimidin-4-yl]amino}-2-hydroxycyclopentyl]methyl sulfamate], the IC50 was < 10 nM and the inhibition at 0.111 µM worked out at 97%.
Take `NS(=O)(=O)OC[C@H]1C[C@@H](Nc2ccncc2C(=O)c2ccn(Cc3ccc(Cl)c(Cl)c3)c2)C[C@@H]1O` [Compound I-233, {(1R,2S,4R)-4-[(3-{[1-(3,4-dichlorobenzyl)-1H-pyrrol-3-yl]carbonyl}pyridin-4-yl)amino]-2-hydroxycyclopentyl}methyl sulfamate]: the IC50 is < 10 nM and the inhibition at 0.111 µM was 98%.
On the same counts, the results for `CCC#CCn1ccc(C(=O)c2cncnc2N[C@@H]2C[C@H](COS(N)(=O)=O)[C@@H](O)C2)n1` [Compound I-234, {(1R,2S,4R)-2-hydroxy-4-[(5-{[1-(pent-2-yn-1-yl)-1H-pyrazol-3-yl]carbonyl}pyrimidin-4-yl)amino]cyclopentyl}methyl sulfamate] are 10 to 100 nM and 91%.
On the same counts, the results for `NS(=O)(=O)OC[C@H]1C[C@@H](Nc2ncncc2C(=O)c2ccn(Cc3ccc(C(F)F)o3)n2)C[C@@H]1O` [Compound I-235, [(1R,2S,4R)-4-({5-[(1-{[5-(difluoromethyl)-2-furyl]methyl}-1H-pyrazol-3-yl)carbonyl]pyrimidin-4-yl}amino)-2-hydroxycyclopentyl]methyl sulfamate] are < 10 nM and 100%.
On the same counts, the results for `COCC#CCn1ccc(C(=O)c2cncnc2N[C@@H]2C[C@H](COS(N)(=O)=O)[C@@H](O)[C@@H]2F)c1` [Compound I-236, {(1R,2R,3R,4R)-3-fluoro-2-hydroxy-4-[(5-{[1-(4-methoxybut-2-yn-1-yl)-1H-pyrrol-3-yl]carbonyl}pyrimidin-4-yl)amino]cyclopentyl}methyl sulfamate] are 10 to 100 nM and 54%.
Turning to `NS(=O)(=O)OC[C@H]1C[C@@H](Nc2ncncc2C(=O)c2ccn(Cc3cccc4nccn34)c2)[C@@H](F)[C@@H]1O` [Compound I-237, {(1R,2R,3R,4R)-3-fluoro-2-hydroxy-4-[(5-{[1-(imidazo[1,2-a]pyridin-5-ylmethyl)-1H-pyrrol-3-yl]carbonyl}pyimidin-4-yl)amino]cyclopentyl}methyl sulfamate], the 50% inhibitory concentration (IC50) lay in the range of 10 to 100 nM and the inhibition at 0.111 µM was determined as 85%.
Taken in the same sequence, the figures for `Cc1cc(C(=O)c2cncnc2N[C@@H]2C[C@H](COS(N)(=O)=O)[C@@H](O)C2)nn1Cc1cccc(Br)n1` [Compound I-238, [(1R,2S,4R)-4-{[5-({1-[(6-bromopyridin-2-yl)methyl]-5-methyl-1H-pyrazol-3-yl}carbonyl)pyrimidin-4-yl]amino}-2-hydroxycyclopentyl]methyl sulfamate] were < 10 nM and 99%.
For the compound `NS(=O)(=O)OC[C@H]1C[C@@H](Nc2ncncc2C(=O)c2ccn(Cc3cc(Br)ccc3Cl)n2)C[C@@H]1O` [Compound I-239, {(1R,2S,4R)-4-[(5-{[1-(5-bromo-2-chlorobenzyl)-1H-pyrazol-3-yl]carbonyl}pyrimidin-4-yl)amino]-2-hydroxycyclopentyl}methyl sulfamate], the IC50 was < 10 nM and the inhibition at 0.111 µM came to 99%.
Turning to `NS(=O)(=O)OC[C@H]1C[C@@H](Nc2ncncc2C(=O)c2ccn(Cc3cccc(Br)c3)n2)[C@H](O)[C@@H]1O` [Compound I-240, {(1R,2R,3S,4R)-4-[(5-{[1-(3-bromobenzyl)-1H-pyrazol-3-yl]carbonyl}pyrimidin-4-yl)amino]-2,3-dihydroxycyclopentyl}methyl sulfamate], the IC50 was < 10 nM and the inhibition at 0.111 µM is 100%.
On the same counts, the results for `NS(=O)(=O)OC[C@H]1C[C@@H](Nc2ncncc2C(=O)c2ccn(Cc3cc4ccccc4s3)n2)C[C@@H]1O` [Compound I-241, {(1R,2S,4R)-4-[(5-{[1-(1-benzothiophen-2-ylmethyl)-1H-pyrazol-3-yl]carbonyl}pyrimidin-4-yl)amino]-2-hydroxycyclopentyl}methyl sulfamate] are < 10 nM and 98%.
Taken in the same sequence, the figures for `NS(=O)(=O)OC[C@H]1C[C@@H](Nc2ccncc2C(=O)c2ccn(Cc3cccc(Cl)c3)n2)[C@@H](F)[C@@H]1O` [Compound I-242, {(1R,2R,3R,4R)-4-[(3-{[1-(3-chlorobenzyl)-1H-pyrazol-3-yl]carbonyl}pyridin-4-yl)amino]-3-fluoro-2-hydroxycyclopentyl}methyl sulfamate] were < 10 nM and 96%.
`NS(=O)(=O)OC[C@H]1C[C@@H](Nc2ncncc2C(=O)c2ccn(CCc3cccc(Br)c3)c2)[C@@H](F)[C@@H]1O` [Compound I-243, [(1R,2R,3R,4R)-4-{[5-({1-[2-(3-bromophenyl)ethyl]-1H-pyrrol-3-yl}carbonyl)pyrimidin-4-yl]amino}-3-fluoro-2-hydroxycyclopentyl]methyl sulfamate]: the half-inhibitory concentration (IC50) is < 10 nM and the inhibition at 0.111 µM was determined as 99%.
On the same counts, the results for `NS(=O)(=O)OC[C@H]1C[C@@H](Nc2ncncc2C(=O)c2cc(Cl)n(Cc3cccc(Br)c3)c2)[C@@H](F)[C@@H]1O` [Compound I-244, {(1R,2R,3R,4R)-4-[(5-{[1-(3-Bromobenzyl)-5-chloro-1H-pyrrol-3-yl]carbonyl}pyrimidin-4-yl)amino]-3-fluoro-2-hydroxycyclopentyl}methyl sulfamate] are < 10 nM and 98%.
On the same counts, the results for `NS(=O)(=O)OC[C@H]1C[C@@H](Nc2ncncc2C(=O)c2ccn(Cc3ccc(F)c(I)c3)n2)C[C@@H]1O` [Compound I-245, {(1R,2S,4R)-4-[(5-{[1-(4-fluoro-3-iodobenzyl)-1H-pyrazol-3-yl]carbonyl}pyrimidin-4-yl)amino]-2-hydroxycyclopentyl}methyl sulfamate] are < 10 nM and 100%.
Taken in the same sequence, the figures for `NS(=O)(=O)OC[C@H]1C[C@@H](Nc2ccncc2C(=O)c2ccn(Cc3cccc(OC(F)F)c3)n2)C[C@@H]1O` [Compound I-246, [(1R,2S,4R)-4-{[3-({1-[3-(difluoromethoxy)benzyl]-1H-pyrazol-3-yl}carbonyl)pyridin-4-yl]amino}-2-hydroxycyclopentyl]methyl sulfamate] were < 10 nM and 97%.
